From the NIST ThermoML archive (doi:10.1021/acs.jced.5b00845)

Experiment: mn = molality of the nth substance listed, in mol/kg
Details: 100 kPa, Liquid, Capillary tube (Ostwald / Ubbelohde) method

O=CC[C@H](O)[C@H](O)CO [2-deoxy-D-erythropentose] + O
viscosity [mPa·s]
Details | m1 = 0.05709 | m1 = 0.07583 | m1 = 0.09188 | m1 = 0.09812 | m1 = 0.1124 | m1 = 0.1366 | m1 = 0.1466
288.15 K | 1.163 | 1.172 | 1.179 | 1.181 | 1.188 | 1.198 | 1.202
298.15 K | 0.909 | 0.915 | 0.92 | 0.922 | 0.927 | 0.935 | 0.938
308.15 K | 0.734 | 0.738 | 0.742 | 0.744 | 0.747 | 0.753 | 0.755
318.15 K | 0.607 | 0.611 | 0.614 | 0.615 | 0.618 | 0.623 | 0.624

CO[C@H]1O[C@H](CO)[C@@H](O)[C@H](O)[C@H]1O [methyl-α-D-glucopyranoside] + O
viscosity [mPa·s]
Details | m1 = 0.06502 | m1 = 0.07733 | m1 = 0.09597 | m1 = 0.1109 | m1 = 0.1219 | m1 = 0.122 | m1 = 0.1465
288.15 K | 1.174 | 1.181 | 1.191 | 1.2 | 1.207 | 1.206 | 1.219
298.15 K | 0.917 | 0.922 | 0.929 | 0.935 | 0.941 | 0.94 | 0.95
308.15 K | 0.74 | 0.744 | 0.749 | 0.754 | 0.758 | 0.757 | 0.765
318.15 K | 0.612 | 0.615 | 0.619 | 0.623 | 0.625 | 0.626 | 0.631

OC[C@H]1OC(O)C[C@@H](O)[C@@H]1O (stereo partly drawn) [2-deoxy-D-glucose] + O
viscosity [mPa·s]
Details | m1 = 0.04241 | m1 = 0.05017 | m1 = 0.05842 | m1 = 0.08671 | m1 = 0.09745 | m1 = 0.1223 | m1 = 0.141
288.15 K | 1.16 | 1.164 | 1.168 | 1.182 | 1.188 | 1.2 | 1.21
298.15 K | 0.907 | 0.909 | 0.913 | 0.923 | 0.927 | 0.936 | 0.943
308.15 K | 0.732 | 0.734 | 0.736 | 0.744 | 0.747 | 0.754 | 0.76
318.15 K | 0.606 | 0.608 | 0.609 | 0.616 | 0.618 | 0.624 | 0.628

O=C[C@H](O)[C@@H](O)[C@H](O)CO [D-xylose] + O
viscosity [mPa·s]
Details | m1 = 0.05317 | m1 = 0.06636 | m1 = 0.07781 | m1 = 0.08585 | m1 = 0.1009 | m1 = 0.1145
288.15 K | 1.159 | 1.165 | 1.169 | 1.173 | 1.179 | 1.185
298.15 K | 0.906 | 0.91 | 0.914 | 0.917 | 0.921 | 0.925
308.15 K | 0.732 | 0.735 | 0.737 | 0.739 | 0.743 | 0.746
318.15 K | 0.606 | 0.608 | 0.61 | 0.612 | 0.614 | 0.618

CO[C@H]1O[C@H](CO)[C@@H](O)[C@H](O)[C@@H]1O [α-methyl mannopyranoside] + O
viscosity [mPa·s]
Details | m1 = 0.05551 | m1 = 0.0769 | m1 = 0.09681 | m1 = 0.1166 | m1 = 0.1344 | m1 = 0.1466 | m1 = 0.1632
288.15 K | 1.172 | 1.185 | 1.197 | 1.209 | 1.22 | 1.227 | 1.237
298.15 K | 0.916 | 0.925 | 0.934 | 0.943 | 0.951 | 0.956 | 0.964
308.15 K | 0.739 | 0.746 | 0.753 | 0.76 | 0.766 | 0.77 | 0.775
318.15 K | 0.611 | 0.617 | 0.623 | 0.628 | 0.633 | 0.636 | 0.64

OC[C@H]1O[C@H](OC[C@H]2O[C@H](O[C@]3(CO)O[C@H](CO)[C@@H](O)[C@@H]3O)[C@H](O)[C@@H](O)[C@@H]2O)[C@H](O)[C@@H](O)[C@H]1O [D-raffinose] + O
viscosity [mPa·s]
Details | m1 = 0.0515 | m1 = 0.06262 | m1 = 0.08002 | m1 = 0.09691 | m1 = 0.1085 | m1 = 0.1133 | m1 = 0.1273 | m1 = 0.1387
288.15 K | 1.227 | 1.246 | 1.275 | 1.303 | 1.322 | 1.33 | 1.353 | 1.371
298.15 K | 0.957 | 0.971 | 0.993 | 1.014 | 1.028 | 1.034 | 1.051 | 1.065
308.15 K | 0.771 | 0.782 | 0.799 | 0.816 | 0.827 | 0.831 | 0.845 | 0.855
318.15 K | 0.637 | 0.646 | 0.659 | 0.672 | 0.681 | 0.684 | 0.695 | 0.703

O=C[C@H](O)[C@@H](O)[C@H](O)[C@H](O)CO [D-glucose] + O
viscosity [mPa·s]
Details | m1 = 0.05335 | m1 = 0.06616 | m1 = 0.08424 | m1 = 0.1038 | m1 = 0.1142 | m1 = 0.1323
288.15 K | 1.167 | 1.175 | 1.185 | 1.196 | 1.202 | 1.211
298.15 K | 0.912 | 0.918 | 0.924 | 0.932 | 0.936 | 0.943
308.15 K | 0.736 | 0.74 | 0.744 | 0.75 | 0.754 | 0.759
318.15 K | 0.609 | 0.612 | 0.616 | 0.621 | 0.623 | 0.628
